According to US20230183705A1, “PRODUCTS FOR SUPPRESSING OR REDUCING THE EXPRESSION OR ACTIVITY OF A SNORNA AND USES THEREOF IN THE TREATMENT OF CANCER” (NINOVAX, priority 2020, published 2023):

Experiments:
Assay type in all cases: cell-based, human
[1] = system: MCF7 cells (breast cancer); test: Cell proliferation (cell counting) after siRNA knock-down of snoRNA-jouvence; conditions: siRNA 10 nM, three transfections at day 0, 2, 4, cells counted at day 7
Description: (§1) The siRNA treatment consists of three reverse transfections applied at day 0, day 2, day 4, followed by the determination of the number of cells at day 7 for A-B-C-D. For E, a single treatment has been done at day 0, and the number of cells was counted two days later. siRNA was used at a concentration of 10 nM. Five different human cancer cell lines were used. A) HCT116 cells (colon cancer), B) MCF7 cells (breast cancer), C) U87 cells (glioblastoma), D) A549 cells (lung cancer), and E) K562 cells (leukemia). In siRNA-treated cells, inventors observed a strong reduction of the number of cells, by about 50% or more, except in E in which the reduction was about 10% probably due to the fact that only a single treatment has been performed. […] In si-RNA treated cells, inventors observed a 40% reduction of snoRNA-jouvence expression.
(§2) All human cancer cell lines were provided from ATCC. HCT116 were cultured in McCoy’s 5A medium (Gibco, Invitrogen, USA), supplemented with 10% Fetal Bovine Serum (FBS) (Biowest, France). MCF7, A549, and K562 cells were cultured in RPMI 1640 + Glutamax medium (Gibco, Invitrogen, USA), supplemented with 10% Fetal Bovine Serum (FBS) (Biowest, France). U87 cells were cultured in Dulbecco’s modified Eagle’s medium (DMEM) (Gibco), supplemented with 10% FBS. Cells were incubated at 37° C. in a humidified atmosphere containing 5% CO2. The medium was changed every two days, and cells were transferred using 0.05% trypsin/EDTA (Gibco Invitrogen).
(§3) The effect of the knock-down of the snoRNA-jouvence in HCT116 cells was assessed by the transfection of short interfering RNA (siRNA). First, the cells were seeded in 12-well plates (in triplicates), with the following number of cells per well: HCT116 and MCF7: 3.0×10^4, K562: 2.5 x10^4, A549: 2.0x10^4, and U87: 6.0x10^4. […] Cell suspensions were directly transfected with the corresponding siRNA (reverse transfection) at a final concentration of 10 nM per well, using the Lipofectamine RNAiMAX transfection reagent (ThermoFisher Scientific, USA). Forty-eight hours after the first siRNA reverse transfection, a forward transfection was performed on the adherent cells (at the same concentration as the first reverse transfection). Again, forty-eight hours after the siRNA forward transfection, a second forward transfection was performed on the adherent cells (at the same concentration). Then, after 72 h (meaning at J7 from the starting point), the medium was changed and cells were counted and compared to the different controls. For the RNA extraction and RNA-seq analysis performed in HCT116 cells, cell pellets were made under the same conditions (at J7). Experiments were performed in triplicates and the specific knock-down of the snoRNA-jouvence was validated by standard RT-qPCR (TaqMan).
(§4) Study was performed in five different human cancer cell lines, HCT116 cells (colon cancer), MCF7 cells (breast cancer), U87 cells (glioblastoma), A549 cells (lung cancer), and K562 cells (leukemia). The proliferation rate of siRNA-treated cells (snoRNA jouvence knock-down) compared to non-treated Control cells was analysed by cell counting at J7. Briefly, the supernatant was harvested and cells washed with PBS 1X. Then, cells were trypsinized with 300 µl of 0.05% trypsin/EDTA (Gibco) per well. Trypsine was inactivated with 700 µL of the corresponding medium per well, and then counted with the VicellXR (Cell viability Analyzer, Beckman Coulter).

[2] = system: HCT116 cells (colon cancer); test: as above; conditions: siRNA 10 nM, three transfections at day 0, 2, 4, cells counted at day 7
Description: as §1, §2, §3, §4

[3] = system: K562 cells (leukemia); test: as above; conditions: siRNA 10 nM, single treatment at day 0, cells counted two days later
Description: as §1, §2, §3, §4

[4] = system: U87 cells (glioblastoma); test: as above; conditions: siRNA 10 nM, three transfections at day 0, 2, 4, cells counted at day 7
Description: as §1, §2, §3, §4

[5] = system: A549 cells (lung cancer); test: as above; conditions: siRNA 10 nM, three transfections at day 0, 2, 4, cells counted at day 7
Description: as §1, §2, §3, §4

[6] = system: Ribosomes pathways; test: Transcriptomic analysis (RNA-seq) with KEGG analysis in HCT116 cells; conditions: HCT116, siRNA treated versus non-treated cells
Description: Briefly, 99 genes over 138 genes of this pathway are deregulated.
as §3, with “(TaqMan). […]” for “(TaqMan).”
In brief, technically, RNA concentration was measured using Qubit® RNA Assay Kit in Qubit® 2.0 Flurometer (Life Technologies, CA, USA). RNA integrity was assessed using the RNA Nano 6000 Assay Kit of the Bioanalyzer 2100 system (Agilent Technologies, CA, USA). […] At last, PCR products were purified (AMPure XP system) and library quality was assessed on the Agilent Bioanalyzer 2100 system. […] After cluster generation, the library preparations were sequenced on an Illumina Hiseq platform and 125 bp/150 bp paired-end reads were generated. […]

[7] = system: snoRNA-jouvence; test: Expression of the snoRNA-jouvence by RT-qPCR (Taqman) in siRNA-treated HCT116 cells; conditions: siRNA-treated HCT116 cells compared to non-treated control HCT116 cells, siRNA 10 nM
Description: as §1
The effect of the knock-down of the snoRNA-jouvence in HCT116 cells was assessed by the transfection of short interfering RNA (siRNA). First, the cells were seeded in 12-well plates (in triplicates), with the following number of cells per well: HCT116 and MCF7: 3.0×10^4, K562: 2.5 x10^4, A549: 2.0x10^4, and U87: 6.0x10^4. […] Then, after 72 h (meaning at J7 from the starting point), the medium was changed and cells were counted and compared to the different controls. […]

siRNA: silencer selected siRNA (Lock-Nucleotide-Acid siRNA) comprising SEQ ID NO: 3 as sense and SEQ ID NO: 4 as antisense sequence, against snoRNA-jouvence (sense GGCUAUUGUGGACAGAGGA; antisense UCCUCUGUCCACAAUAGCC; Silencer Select LNA-modified siRNA, pattern not given here)
reduction of the number of cells [1]: ≥ 50% | reduction of the number of cells [2]: ≥ 50% | reduction of the number of cells [3]: about 10% | reduction of the number of cells [4]: ≥ 50% | reduction of the number of cells [5]: ≥ 50% | deregulated genes of the Ribosomes pathways (over 138 genes) [6]: 99 genes | downregulated genes of the Ribosomes pathways [6]: 92 genes | upregulated genes of the Ribosomes pathways [6]: 7 genes | reduction of snoRNA-jouvence expression [7]: 40%
